Experimental data published in patent publication US8440641B2, “Phthalocyanine salt formulations” (Case Western Reserve University, priority 2009, dated 2013).
“And” between values parts separate entries of the source, which are not always exact repeats. Equal values may be shown once.

Key:
Format in all cases: physicochemical
[1] = Qualitative solubility in representative organic solvents; conditions: for solubility in CH2Cl2: CH2Cl2, qualitative; for solubility in dimethylformamide / solubility in ethanol / solubility in hexanes / solubility in toluene: qualitative
[2] = Chemical stability (air, chromatography); conditions: air
[3] = Salt concentration in polar and nonpolar solvents (Table 2); conditions: for solubility in hexanes and mineral oil: mineral oil (Nujol)
[4] = Photofading of phthalocyanines on irradiation with tungsten lamp light; conditions: toluene ~0.01 mM, 300 W tungsten lamp, 30 cm, room temperature
Experimental: Linolenate Ester of SiPc(OH)2, SiPc(OC(O)(CH2)6(CH2CH═CH)3 CH2CH3]2. A solution of the linolenate ester of SiPc(OH)2 in toluene (˜0.01 mM) in a capped quartz cuvette was irradiated at room temperature with light from a tungsten lamp (300 W) in a projector (Kodak […] III E, Kodak, Japan) with a lamp-to-cuvette separation of 30 cm. The UV-vis absorption of the solution at 684 nm was taken periodically and the percent ester remaining was calculated.
The compounds below Table 7 show phthalocyanines with (a) polyunsaturated ester ligands and (b) with polyunsaturated anions

[5] = Quantitative solubility (concentration) in H2O and aqueous dispersants
From the text: Disperstants are agents added to an aqueous solution to prevent clumping, and include a number of surfactant and surfactant-like molecules. […]

| Compound | solubility in CH2Cl2 [1] | solubility in dimethylformamide [1] | solubility in ethanol [1] | solubility in hexanes [1] | solubility in toluene [1] | also measured |
| --- | --- | --- | --- | --- | --- | --- |
| 4-C9H19C6H4-1-(OCH2CH2)˜20O(CH2)3SO3H [Compound 17] | soluble | soluble | soluble | insoluble | moderately soluble |  |
| CN(C)CCC[Si](C)(C)O[Si-2]123(F)n4c5c6ccccc6c4N=C4c6ccccc6C(=[N+]41)N=c1c4ccccc4c(n12)=NC1=[N+]3C(=N5)c2ccccc21 [Compound 1, FSiPcOSi(CH3)2(CH2)3N(CH3)2] | soluble | soluble | soluble | insoluble | moderately soluble | stability in air [2]: stable |
| CC(=O)O[Si-2]123(O[Si](C)(C)CCCN(C)C)n4c5c6ccccc6c4N=C4c6ccccc6C(=[N+]41)N=c1c4ccccc4c(n12)=NC1=[N+]3C(=N5)c2ccccc21 [Compound 2, CH3C(O)OSiPcOSi(CH3)2(CH2)3N(CH3)2] | soluble | soluble | soluble | insoluble | moderately soluble | stability in air [2]: stable |
| CCC(=O)O[Si-2]123(O[Si](C)(C)CCCN(C)C)n4c5c6ccccc6c4N=C4c6ccccc6C(=[N+]41)N=c1c4ccccc4c(n12)=NC1=[N+]3C(=N5)c2ccccc21 [Compound 3, CH3CH2C(O)OSiPcOSi(CH3)2(CH2)3N(CH3)2] | soluble | soluble | soluble | insoluble | moderately soluble | stability in air [2]: stable |
| CO[Si]1(O[Si](C)(C)CCCN(C)C)n2c3c4ccccc4c2N=C2N=C(N=c4c5ccccc5c(n41)=NC1=NC(=N3)c3ccccc31)c1ccccc12 (stereo not drawn) [Compound 4, CH3OSiPcOSi(CH3)2(CH2)3N(CH3)2] | soluble | soluble | soluble | insoluble | moderately soluble | stability in air [2]: stable |
| CN(C)CCC[Si](C)(C)O[Si]1(O)n2c3c4ccccc4c2N=C2N=C(N=c4c5ccccc5c(n41)=NC1=NC(=N3)c3ccccc31)c1ccccc12.COC(=O)c1ccccc1C(=O)O (stereo not drawn) [Compound 10, [HOSiPcOSi(CH3)2(CH2)3NH(CH2)2]^+[2-(CH3OC(O))C6H4C(O)O]^−] | soluble | soluble | soluble | insoluble | moderately soluble |  |
| CN(C)CCC[Si](C)(C)O[Si]1(O)n2c3c4ccccc4c2N=C2N=C(N=c4c5ccccc5c(n41)=NC1=NC(=N3)c3ccccc31)c1ccccc12.CP(C)(=O)O (stereo not drawn) [Compound 13, [HOSiPcOSi(CH3)2(CH2)3NH(CH2)2]^+[(CH3)2P(O)O]^−] | soluble | soluble | soluble | insoluble | moderately soluble |  |
| CN(C)CCC[Si](C)(C)O[Si]1(O)n2c3c4ccccc4c2N=C2N=C(N=c4c5ccccc5c(n41)=NC1=NC(=N3)c3ccccc31)c1ccccc12.O=C(O)CCC(=O)OCCOCCOCCOCCOCCOCCOCCOCCOCCO (stereo not drawn) [Compound 20, [HOSiPcOSi(CH3)2(CH2)3NH(CH3)2]^+[H(OCH2CH2)9OC(O)(CH2)2C(O)O]^−] | soluble | soluble | soluble | insoluble | moderately soluble |  |
| CN(C)CCC[Si](C)(C)O[Si]1(O)n2c3c4ccccc4c2N=C2N=C(N=c4c5ccccc5c(n41)=NC1=NC(=N3)c3ccccc31)c1ccccc12.CS(=O)(=O)O (stereo not drawn) [Compound 26, [HOSiPcOSi(CH3)2(CH2)3NH(CH3)2]^+[CH3SO3]^−] |  |  |  |  |  | salt concentration, […] aqueous Tween 80 [3]: 0.262 mM; solubility in aqueous solution ([3]; in words): show solubility; salt concentration, hexanes [3]: 0.002 mM; solubility in hexanes and mineral oil ([3]; in words): little; salt concentration, mineral oil [3]: 0.002 mM |
| CCC=CCC=CCC=CCC=CCC=CCC=CCCC(=O)O.CCC=CCC=CCC=CCC=CCC=CCC=CCCC(=O)O.CN(C)CCC[Si](C)(C)O[Si]1(O[Si](C)(C)CCCN(C)C)n2c3c4ccccc4c2N=C2N=C(N=c4c5ccccc5c(n41)=NC1=NC(=N3)c3ccccc31)c1ccccc12 [DHA salt, {SiPc[OSi(CH3)2(CH2)3NH(CH3)2]2}^2+[CH3CH2(CH═CHCH2)6CH2COO^−]2] |  |  |  |  |  | % left ([4]; 4 hrs irradiation): 72%; % left ([4]; 8 hrs irradiation): 62% |
| CN(C)CCC[Si](C)(C)O[Si]1(O)n2c3c4ccccc4c2N=C2N=C(N=c4c5ccccc5c(n41)=NC1=NC(=N3)c3ccccc31)c1ccccc12 (stereo not drawn) [Pc 4, HOSiPcOSi(CH3)2(CH2)3N(CH3)2, reference compound] |  |  |  |  |  | Pc 4 conc ([5]; H2O, no dispersant): 0.0 μg/mL and 0.0 μM; Pc 4 conc ([5]; aqueous 1,6-hexanediol 7.2 mg/mL (61 mM)): 7.2 μg/mL and 10 μM; Pc 4 conc ([5]; aqueous Dow Corning 193 7.2 mg/mL): 0.29 μg/mL and 0.40 μM; Pc 4 conc ([5]; aqueous potassium poly(ethylene glycol)-4-nonylphenyl-3-sulfopropyl ether 7.2 mg/mL (5.7 mM)): 4.3 μg/mL and 6.0 μM; Pc 4 conc ([5]; aqueous povidone 7.2 mg/mL (0.18 mM)): 0.09 μg/mL and 0.12 μM |
| CH3(OCH2CH2)˜45OC(O)(CH2)2C(O)OH [Compound 23] | soluble | soluble | soluble | insoluble | moderately soluble |  |
| H(OCH2CH2)˜9OC(O)(CH2)2C(O)OH [Compound 19] | soluble | soluble | soluble | insoluble | moderately soluble |  |
| H(OCH2CH2)˜76OOC(CH2)2COOH [Compound 21] | soluble | soluble | soluble | insoluble | moderately soluble |  |
| SiPc(OC(O)(CH2)6(CH2CH═CH)2(CH2)4CH3]2 [linoleic ester] |  |  |  |  |  | % left ([4]; 4 hrs irradiation): 95%; % left ([4]; 12 hrs irradiation): 95%; % left ([4]; 20 hrs irradiation): 94% |
| SiPc[OC(O)(CH2)17]2 [stearic ester] |  |  |  |  |  | % left ([4]; 20 hrs irradiation): 100% |
| [HOSiPcOSi(CH3)2(CH2)3NH(CH2)2]^+[C27H29N2O7S2]^− [Compound 14] | soluble | soluble | soluble | insoluble | moderately soluble |  |
| [HOSiPcOSi(CH3)2(CH2)3NH(CH2)2]^+[C33H53O5]^− [Compound 11] | soluble | soluble | soluble | slightly soluble | moderately soluble | salt concentration, […] aqueous Tween 80 [3]: 0.004 mM; solubility in aqueous solution ([3]; in words): only slight solubility; salt concentration, hexanes [3]: 0.065 mM; solubility in hexanes and mineral oil ([3]; in words): significant solubility; salt concentration, mineral oil [3]: 0.029 mM; solubility in petrolatum ([3]; petrolatum (Vaseline), in words): significant solubility |
| [HOSiPcOSi(CH3)2(CH2)3NH(CH3)2]^+[4-C9H19C6H4-1-(OCH2CH2)˜20O(CH2)3SO3]^− [Compound 18] | soluble | soluble | soluble | insoluble | moderately soluble | salt conc in dilute aqueous Tween 80 ([5]; Tween 80 7.2 mg/mL ([…])): 874 µM; salt conc ([5]; aqueous Dow Corning 193 7.2 mg/mL, listed as Pc 245): 50 μg/mL and 70 μM; salt conc ([5]; aqueous PEG methyl ether 350 7.2 mg/mL (21 mM), listed as Pc 245): 9.3 μg/mL and 13 μM; salt conc ([5]; aqueous PEG methyl ether 750 7.2 mg/mL (9.6 mM), listed as Pc 245): 0.022 μg/mL and 0.031 μM; salt conc ([5]; aqueous PEG methyl ether 2000 7.2 mg/mL (3.6 mM), listed as Pc 245): 1.3 μg/mL and 1.8 μM; salt conc ([5]; aqueous PEG methyl ether 5000 7.2 mg/mL (1.4 mM), listed as Pc 245): 3.4 μg/mL and 4.8 μM; salt conc ([5]; aqueous potassium poly(ethylene glycol)-4-nonylphenyl-3-sulfopropyl ether 7.2 mg/mL (5.0 mM)): 1418 µM; salt conc ([5]; aqueous potassium poly(ethylene glycol)-4-nonylphenyl-3-sulfopropyl ether 7.2 mg/mL (5.0 mM), listed as Pc 245): ~1018 μg/mL and ~1418 μM; salt conc ([5]; aqueous povidone 7.2 mg/mL (0.18 mM), listed as Pc 245): 14 μg/mL and 19 μM |
| [HOSiPcOSi(CH3)2(CH2)3NH(CH3)2]^+[CH3(OCH2CH2)˜45OC(O)(CH2)2C(O)O]^− [Compound 24] | soluble | soluble | soluble | insoluble | moderately soluble |  |
| [HOSiPcOSi(CH3)2(CH2)3NH(CH3)2]^+[H(OCH2CH2)˜76O(O)C(CH2)2C(O)O]^− [Compound 22] | soluble | soluble | soluble | insoluble | moderately soluble |  |
| {SiPc[OSi(CH3)2(CH2)3NH(CH3)2]2}^2+[CH3CH2(CH═CHCH2)3(CH2)6COO^−]2 [linolenic salt] |  |  |  |  |  | % left ([4]; 12 hrs irradiation): 79%; % left ([4]; 20 hrs irradiation): 73% |
